Results reported in ChEMBL document CHEMBL4002636, “Alkaloids from the mangrove endophytic fungus Diaporthe phaseolorum SKS019” (Bioorg Med Chem Lett, 2017).
The source made the active and inactive calls. The rule behind the calls is not given here.

Key:
HepG2 [1] = experiment: Cytotoxicity against human HepG2 cells assessed as growth inhibition at 50 uM after 48 hrs by MTT assay; type: functional, cell-based
MDA-MB-435 [2] = experiment: Cytotoxicity against human MDA-MB-435 cells assessed as growth inhibition after 48 hrs by MTT assay; type: functional, cell-based; details: MDA-MB-435, 48 h
HCT-116 [3] = experiment: Cytotoxicity against human HCT116 cells assessed as growth inhibition at 50 uM after 48 hrs by MTT assay; type: functional, cell-based
MCF-10A = experiment: Cytotoxicity against human MCF10A cells assessed as growth inhibition after 48 hrs by MTT assay; type: cell-based
NCI-H460 [4] = experiment: Cytotoxicity against human NCI-H460 cells assessed as growth inhibition at 50 uM after 48 hrs by MTT assay; type: functional, cell-based
HepG2 [5] = experiment: Cytotoxicity against human HepG2 cells assessed as growth inhibition after 48 hrs by MTT assay; type: functional, cell-based; details: HepG2, 48 h
MDA-MB-435 [6] = experiment: Cytotoxicity against human MDA-MB-435 cells assessed as growth inhibition at 50 uM after 48 hrs by MTT assay; type: functional, cell-based
NCI-H460 [7] = experiment: Cytotoxicity against human NCI-H460 cells assessed as growth inhibition after 48 hrs by MTT assay; type: functional, cell-based; details: NCI-H460, 48 h
HCT-116 [8] = experiment: Cytotoxicity against human HCT116 cells assessed as growth inhibition after 48 hrs by MTT assay; type: functional, cell-based; details: HCT-116, 48 h

SMILES	growth inhibition (GI) (HepG2 [1])	IC50 (MDA-MB-435 [2])	growth inhibition (GI) (HCT-116 [3])	IC50 (MCF-10A)	growth inhibition (GI) (NCI-H460 [4])	IC50 (HepG2 [5])	growth inhibition (GI) (MDA-MB-435 [6])	IC50 (NCI-H460 [7])	IC50 (HCT-116 [8])
COC(=O)c1cc(OC)c(OC(C)=O)c2oc3cc(C)ncc3c(=O)c12	inactive	> 50 µM	inactive	> 50 µM	inactive	> 50 µM	inactive	> 50 µM	> 50 µM
COC(=O)c1cc(O)cc2oc3cc(CO)ncc3c(=O)c12	inactive	> 50 µM	inactive	> 50 µM	inactive	> 50 µM	inactive	> 50 µM	> 50 µM
COC(=O)c1cc(OC)c(OC)c2oc3cc(C)ncc3c(=O)c12	inactive	> 50 µM	inactive	> 50 µM	inactive	> 50 µM	inactive	> 50 µM	> 50 µM
COC(=O)CCCCN1Cc2c(O)cc(O)cc2C1=O	inactive	> 50 µM	inactive	> 50 µM	inactive	> 50 µM	inactive	> 50 µM	> 50 µM
COc1cccc2c1C(=O)c1c(O)c3c(c(O)c1C2=O)C[C@@](O)(C(=O)CO)C[C@@H]3O[C@H]1C[C@H](N)[C@@H](O)[C@H](C)O1 [EPIRUBICIN]		0.26 µM		0.13 µM		0.32 µM		0.12 µM	0.37 µM
O=C(O)CCCCN1Cc2c(O)cc(O)cc2C1=O	inactive	> 50 µM	inactive	> 50 µM	inactive	> 50 µM	inactive	> 50 µM	> 50 µM
COc1cc(O)c2c(c1)C(=O)c1cc(C)ncc1C2=O		5.32 µM		9.31 µM		> 50 µM		6.57 µM	34.8 µM
COC(=O)c1cc(OC)cc2oc3cc(C)ncc3c(=O)c12	inactive	> 50 µM	inactive	> 50 µM	inactive	> 50 µM	inactive	> 50 µM	> 50 µM
O=C1c2cc(O)cc(O)c2CN1CCO	inactive	> 50 µM	inactive	> 50 µM	inactive	> 50 µM	inactive	> 50 µM	> 50 µM
